# Assay results as given in patent publication US10239873B2, “7-azaindole or 4,7-diazaindole derivatives as IKKϵ epsilon and TBK1 inhibitor and pharmaceutical composition comprising same” (GREEN CROSS CORPORATION, priority 2015, dated 2019).
# Where a name gives a salt, the structure may show the parent alone.
# How the values were obtained:
# TBK1 = target: T1, TBK1 (Homo sapiens, UniProt Q9UHD2); experiment: ADP-Glo Kinase Assay, inhibition activity on TBK1; format: biochemical
# T1 construct: purchased Promega (Invitrogen is also named in the same bracket) V4158; PR8031B; V3991 (not assigned to the two kinases)
# T1 sequence (Q9UHD2 1-729): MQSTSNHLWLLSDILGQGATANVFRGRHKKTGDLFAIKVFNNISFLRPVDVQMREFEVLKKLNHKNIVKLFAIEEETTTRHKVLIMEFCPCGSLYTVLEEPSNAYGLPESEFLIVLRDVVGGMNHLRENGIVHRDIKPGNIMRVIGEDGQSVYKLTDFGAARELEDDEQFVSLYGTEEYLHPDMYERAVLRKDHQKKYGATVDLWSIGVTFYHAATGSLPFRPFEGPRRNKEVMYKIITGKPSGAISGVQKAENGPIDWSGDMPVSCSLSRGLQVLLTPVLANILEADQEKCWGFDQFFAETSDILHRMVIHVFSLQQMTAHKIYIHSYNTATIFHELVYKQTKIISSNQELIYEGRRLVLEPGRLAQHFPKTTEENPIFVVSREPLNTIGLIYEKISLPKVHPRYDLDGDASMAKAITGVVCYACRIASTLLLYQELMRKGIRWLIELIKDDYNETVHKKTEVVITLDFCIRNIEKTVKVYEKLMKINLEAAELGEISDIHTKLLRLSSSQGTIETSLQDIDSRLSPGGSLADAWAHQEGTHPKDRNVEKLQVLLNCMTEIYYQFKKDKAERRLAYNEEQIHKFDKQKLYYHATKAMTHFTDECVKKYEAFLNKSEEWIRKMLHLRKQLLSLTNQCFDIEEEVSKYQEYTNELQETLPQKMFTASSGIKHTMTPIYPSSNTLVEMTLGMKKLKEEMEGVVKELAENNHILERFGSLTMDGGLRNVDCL
# How it was run: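 In 40 mM Tris pH 7.5 with 20 mM MgCl2 and 0.1 mg/mL BSA, each enzyme (IKKε or TBK1 kinase system) was run according to the manufacturer's protocol. ADP formed was detected by ADP-Glo luminescence.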
# IKKε = target: T2, IKKε (Homo sapiens, UniProt Q14164); experiment: ADP-Glo Kinase Assay, inhibition activity on IKKε; format: biochemical
# T2 construct: purchased Promega and/or Invitrogen V4158; PR8031B; V3991 (not assigned to the two kinases)
# T2 sequence (Q14164 1-716): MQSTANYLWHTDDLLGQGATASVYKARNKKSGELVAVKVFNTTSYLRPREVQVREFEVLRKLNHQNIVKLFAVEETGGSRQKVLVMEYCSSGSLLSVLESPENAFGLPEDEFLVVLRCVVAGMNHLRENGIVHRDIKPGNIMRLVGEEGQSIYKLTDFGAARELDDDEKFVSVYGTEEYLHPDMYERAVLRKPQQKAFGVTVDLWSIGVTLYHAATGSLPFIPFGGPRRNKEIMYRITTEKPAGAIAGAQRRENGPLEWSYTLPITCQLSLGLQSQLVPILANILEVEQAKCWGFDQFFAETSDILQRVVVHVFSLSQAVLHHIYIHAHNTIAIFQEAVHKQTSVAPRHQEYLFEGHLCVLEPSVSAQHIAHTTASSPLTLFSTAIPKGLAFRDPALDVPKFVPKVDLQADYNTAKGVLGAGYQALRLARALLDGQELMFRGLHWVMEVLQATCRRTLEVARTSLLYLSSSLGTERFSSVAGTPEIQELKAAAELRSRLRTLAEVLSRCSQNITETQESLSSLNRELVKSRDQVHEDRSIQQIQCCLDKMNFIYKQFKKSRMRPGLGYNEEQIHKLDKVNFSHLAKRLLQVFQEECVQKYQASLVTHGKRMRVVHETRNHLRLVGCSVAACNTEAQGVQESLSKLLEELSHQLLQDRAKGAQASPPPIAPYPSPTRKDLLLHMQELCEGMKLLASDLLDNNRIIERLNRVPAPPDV
# Procedure: Inhibition activities on IKKϵ and TBK1 were evaluated using the compounds of Examples 1 to 250.
# The inhibition activities on IKKϵ and TBK1 were measured by a luminometer, IKKϵ/TBK1 Kinase Enzyme System (Promega, Ca# V4158; Invitrogen, PR8031B, Promega, Ca# V3991) and ADP-Glo Kinase Assay using ADP-Glo™ Kinase Analysis Kit (Promega, Ca# V9101) and a kinase reaction buffer [40 mM Tris(pH 7.5), 20 mM MgCl2, 0.1 mg/mL BSA] in accordance with the manufacturer's protocol.
SMILES,IC50 (TBK1) [µM],IC50 (IKKε) [µM]
"CC(C)NC(=O)N1CC=C(c2c[nH]c3ncc(-c4ccc(CN5CCN(C)CC5)nc4)cc23)CC1 [Example 25, N-isopropyl-4-(5-(6-((4-methylpiperazin-1-yl)methyl)pyridin-3-yl)-1H-pyrrolo[2,3-b]pyridin-3-yl)-3,6-dihydropyridine-1(2H)-carboxamide]",0.016,0.051
"CC(C)NC(=O)N1CC=C(c2c[nH]c3ncc(-c4ccc(CN5CCCC5)o4)cc23)CC1 [Example 27, N-isopropyl-4-(5-(5-(pyrrolidin-1-ylmethyl)furan-2-yl)-1H-pyrrolo[2,3-b]pyridin-3-yl)-5,6-dihydropyridine-1(2H)-carboxamide]",0.57,1.98
"CC(C)NC(=O)N1CC=C(c2c[nH]c3ncc(-c4ccc(CN5CCCC5)s4)cc23)CC1 [Example 28, N-isopropyl-4-(5-(5-(pyrrolidin-1-ylmethyl)thiophen-2-yl)-1H-pyrrolo[2,3-b]pyridin-3-yl)-5,6-dihydropyridine-1(2H)-carboxamide]",0.018,0.058
"CC(C)NC(=O)N1CC=C(c2c[nH]c3ncc(-c4cccc(CN5CCOCC5)c4)cc23)CC1 [Example 29, N-isopropyl-4-(5-(3-(morpholinomethyl)phenyl)-1H-pyrrolo[2,3-b]pyridin-3-yl)-5,6-dihydropyridine-1(2H)-carboxamide]",0.016,0.029
"CC(C)NC(=O)N1CC=C(c2c[nH]c3ncc(-c4ccc(CN5CCN(C)CC5)o4)cc23)CC1 [Example 35, N-isopropyl-4-(5-(5-((4-methylpiperazin-1-yl)methyl)furan-2-yl)-1H-pyrrolo[2,3-b]pyridin-3-yl)-5,6-dihydropyridine-1(2H)-carboxamide]",0.018,0.11
"CC(C)NC(=O)N1CC=C(c2c[nH]c3ncc(-c4ccc(OC5CCOCC5)cc4)cc23)CC1 [Example 38, N-isopropyl-4-(5-(4-((tetrahydro-2H-pyran-4-yl)oxy)phenyl)-1H-pyrrolo[2,3-b]pyridin-3-yl)-3,6-dihydropyridine-1(2H)-carboxamide]",0.029,0.021
"CC(C)NC(=O)N1CC=C(c2c[nH]c3ncc(-c4ccc(N)c5c4CNC5=O)cc23)CC1 [Example 39, 4-(5-(7-Amino-1-oxoisoindolidin-4-yl)-1H-pyrrolo[2,3-b]pyridin-3-yl)-N-isopropyl-3,6-dihydropyridine-1(2H)-carboxamide]",0.035,0.035
"CCC(CC)NC(=O)N1CC=C(c2c[nH]c3ncc(-c4ccc(CN5CCOCC5)s4)cc23)CC1 [Example 40, 4-(5-(5-(Morpholinomethyl)thiophen-2-yl)-1H-pyrrolo[2,3-b]pyridin-3-yl)-N-(pentan-3-yl)-3,6-dihydropyridine-1(2H)-carboxamide]",0.074,0.17
"CCC(CC)NC(=O)N1CC=C(c2c[nH]c3ncc(-c4ccc(CN5CCN(C)CC5)s4)cc23)CC1 [Example 41, 4-(5-(5-((4-Methylpiperazin-1-yl)methyl)thiophen-2-yl)-1H-pyrrolo[2,3-b]pyridin-3-yl)-N-(pentan-3-yl)-3,6-dihydropyridine-1(2H)-carboxamide]",0.047,0.22

# Compounds with a lower IC50 (TBK1), results first:
IC50 (TBK1) [µM],IC50 (IKKε) [µM],SMILES
0.015,0.046,"CC(C)NC(=O)N1CC=C(c2c[nH]c3ncc(-c4cccc(C(=O)N5CCN(C)CC5)c4)cc23)CC1 [Example 31, N-isopropyl-4-(5-(3-(4-methylpiperazine-1-carbonyl)phenyl)-1H-pyrrolo[2,3-b]pyridin-3-yl)-5,6-dihydropyridine-1(2H)-carboxamide]"
0.012,0.041,"CCN1CCN(Cc2cccc(-c3cnc4[nH]cc(C5=CCN(C(=O)NC(C)C)CC5)c4c3)c2)CC1 [Example 24, 4-(5-(3-((4-Ethylpiperazin-1-yl)methyl)phenyl)-1H-pyrrolo[2,3-b]pyridin-3-yl)-N-isopropyl-3,6-dihydropyridine-1(2H)-carboxamide]"
0.01,0.02,"CCN1CCN(Cc2ccc(-c3cnc4[nH]cc(C5=CCN(C(=O)NC(C)C)CC5)c4c3)cc2)CC1 [Example 22, 4-(5-(4-((4-Ethylpiperazin-1-yl)methyl)phenyl)-1H-pyrrolo[2,3-b]pyridin-3-yl)-N-isopropyl-3,6-dihydropyridine-1(2H)-carboxamide]"
0.01,0.013,"CC(C)NC(=O)N1CC=C(c2c[nH]c3ncc(-c4ccc(NC5CCOCC5)cc4)cc23)CC1 [Example 37, N-isopropyl-4-(5-(4-((tetrahydro-2H-pyran-4-yl)amino)phenyl)-1H-pyrrolo[2,3-b]pyridin-3-yl)-3,6-dihydropyridine-1(2H)-carboxamide]"
0.0077,0.025,"CCN1CCN(Cc2ccc(-c3cnc4[nH]cc(C5=CCN(C(=O)NC(C)C)CC5)c4c3)s2)CC1 [Example 26, 4-(5-(5-((4-Ethylpiperazin-1-yl)methyl)thiophen-2-yl)-1H-pyrrolo[2,3-b]pyridin-3-yl)-N-isopropyl-3,6-dihydropyridine-1(2H)-carboxamide]"
0.007,0.013,"CC(C)NC(=O)N1CC=C(c2c[nH]c3ncc(-c4ccc(C(=O)N5CCN(C)CC5)cc4)cc23)CC1 [Example 32, N-isopropyl-4-(5-(4-(4-methylpiperazine-1-carbonyl)phenyl)-1H-pyrrolo[2,3-b]pyridin-3-yl)-5,6-dihydropyridine-1(2H)-carboxamide]"
0.0057,0.0066,"CC(C)NC(=O)N1CC=C(c2c[nH]c3ncc(-c4ccc(CN5CCN(C6CC6)CC5)cc4)cc23)CC1 [Example 23, 4-(5-(4-((4-Cyclopropylpiperazin-1-yl)methyl)phenyl)-1H-pyrrolo[2,3-b]pyridin-3-yl)-N-isopropyl-3,6-dihydropyridine-1(2H)-carboxamide]"
0.0045,0.0088,"CC(C)NC(=O)N1CC=C(c2c[nH]c3ncc(-c4ccc(CN5CCOCC5)cc4)cc23)CC1 [Example 30, N-isopropyl-4-(5-(4-(morpholinomethyl)phenyl)-1H-pyrrolo[2,3-b]pyridin-3-yl)-5,6-dihydropyridine-1(2H)-carboxamide]"
0.0033,0.024,"O=C(NC1CC1)N1CC=C(c2c[nH]c3ncc(-c4ccc(CN5CCNCC5)s4)cc23)CC1 [Example 45, N-cyclopropyl-4-(5-(5-(piperazin-1-ylmethyl)thiophen-2-yl)-1H-pyrrolo[2,3-b]pyridin-3-yl)-5,6-dihydropyridine-1(2H)-carboxamide dihydrochloride]"
0.0019,0.062,"CCC(C)NC(=O)N1CC=C(c2c[nH]c3ncc(-c4ccc(CN5CCN(C)CC5)s4)cc23)CC1 (stereo not shown) [Example 42, N-(sec-butyl)-4-(5-(5-((4-methylpiperazin-1-yl)methyl)thiophen-2-yl)-1H-pyrrolo[2,3-b]pyridin-3-yl)-5,6-dihydropyridine-1(2H)-carboxamide]"
0.0011,0.0069,"CC(C)NC(=O)N1CC=C(c2c[nH]c3ncc(-c4ccc(CN5CCN(C)CC5)s4)cc23)CC1 [Example 33, N-isopropyl-4-(5-(5-((4-methylpiperazin-1-yl)methyl)thiophen-2-yl)-1H-pyrrolo[2,3-b]pyridin-3-yl)-5,6-dihydropyridine-1(2H)-carboxamide]"
